These results are taken from ChEMBL document CHEMBL5226369, “Tetracyclic Steroids Bearing a Bicyclo[4.4.1] Ring System as Potent Antiosteoporosis Agents from the Deep-Sea-Derived Fungus Rhizopus sp. W23” (J Nat Prod, 2023).

The subject of experiment [1] is A-431. As to the kind of experiment: Antiproliferative activity against human A-431 cells by MTT assay. In kind it is functional, cell-based. In general terms: Formazan colour is commonly taken as a measure of viable cells.
Experiment [2] deals with A549. The experiment is described as follows: Antiproliferative activity against human A549 cells by MTT assay. In kind it is functional, cell-based.
In experiment [3] the test system is MDA-MB-231. As to the kind of experiment: Antiproliferative activity against human MDA-MB-231 cells by MTT assay. The format is functional, cell-based.
Experiment [4] has as its system MCF7. The experiment is described as follows: Antiproliferative activity against human MCF7 cells by MTT assay. The format is functional, cell-based.
Experiment [5] relates to PANC-1. As to the kind of experiment: Antiproliferative activity against human PANC-1 cells by MTT assay. The format is functional, cell-based.
The subject of experiment [6] is HepG2. As to the kind of experiment: Antiproliferative activity against human HepG2 cells by MTT assay. The format is functional, cell-based.
Experiment [7] relates to HCT-116. As to the kind of experiment: Antiproliferative activity against human HCT-116 cells by MTT assay. In kind it is functional, cell-based.
The test system of experiment [8] is NCI-H460. The experiment is described as follows: Antiproliferative activity against human NCI-H460 cells by MTT assay. In kind it is functional, cell-based.
The test system of experiment [9] is NCI-H1299. As to the kind of experiment: Antiproliferative activity against human NCI-H1299 cells by MTT assay. In kind it is functional, cell-based.
Experiment [10] is described as follows: Antiproliferative activity against human QGY-7701 cells by MTT assay. The format is functional, cell-based. Particulars: QGY7701.
The test system of experiment [11] is BGC-823. The experiment is described as follows: Antiproliferative activity against human BGC-823 cells by MTT assay. In kind it is functional, cell-based.
Experiment [12] can be described thus: Antiproliferative activity against human SKGT4 cells by MTT assay. The format is functional, cell-based.
The test system of experiment [13] is A-375. The experiment is described as follows: Antiproliferative activity against human A-375 cells by MTT assay. In kind it is functional, cell-based.
Experiment [14] has as its system U2OS. The experiment is described as follows: Antiproliferative activity against human U2OS cells by MTT assay. The format is functional, cell-based.
The subject of experiment [15] is HL-60. As to the kind of experiment: Antiproliferative activity against human HL-60 cells by MTT assay. In kind it is functional, cell-based.
Experiment [16] deals with K562. As to the kind of experiment: Antiproliferative activity against human K562 cells by MTT assay. In kind it is functional, cell-based.
Experiment [17] relates to KYSE-450. As to the kind of experiment: Antiproliferative activity against human KYSE-450 cells by MTT assay. In kind it is functional, cell-based.
The test system of experiment [18] is PC-3. The experiment is described as follows: Antiproliferative activity against human PC-3 cells by MTT assay. The format is functional, cell-based.
The test system of experiment [19] is BMSC. As to the kind of experiment: Anti-osteoporosis activity against C57BL/6J mouse BMSC cells assessed as increase in matrix mineralization of osteoblasts at 20 uM incubated for 14 days by Alizarin Red S staining based analysis. The conditions noted are these: time 14.0 day. The format is functional, cell-based.
A short description of experiment [20]: (§1) Anti-osteoporosis activity against C57BL/6J mouse BMSC cells assessed as increase in osteogenic mineralization incubated for 14 days by Alizarin Red S staining based analysis. Particulars: 336 h, time 14 day, read-out: MEC. In kind it is functional.
Experiment [21] relates to BMSC. The description is as §1. In kind it is functional. The conditions noted are these: time 14.0 day.
Experiment [22] is described as follows: Inhibition of adipogenic differentiation in C57BL/6J mouse BMSC cells at 5 uM measured after 6 days by Oil Red O staining based light microscopy. The conditions noted are these: 144 h, time 6 day. In kind it is functional.
Experiment [23] can be described thus: Inhibition of adipogenic differentiation in C57BL/6J mouse BMSC cells at 20 uM measured after 6 days by Oil Red O staining based light microscopy. The format is functional. The conditions noted are these: 144 h, time 6 day.
Experiment [24] addresses Protein smoothened (Homo sapiens, UniProt Q99835). The experiment is described as follows: Agonist activity at SMO receptor (unknown origin).

In general, IC50 refers to the concentration that gives 50% inhibition. By inhibition is commonly meant the share of the control response that was lost under treatment. Usually EC50 stands for the concentration that produces a half-maximal response. Low readings indicate an effect from little substance, high ones a need for much substance.

The source made the active and inactive calls. No cut-off for these calls is given here.

Protein smoothened, sequence (Q99835 whole entry): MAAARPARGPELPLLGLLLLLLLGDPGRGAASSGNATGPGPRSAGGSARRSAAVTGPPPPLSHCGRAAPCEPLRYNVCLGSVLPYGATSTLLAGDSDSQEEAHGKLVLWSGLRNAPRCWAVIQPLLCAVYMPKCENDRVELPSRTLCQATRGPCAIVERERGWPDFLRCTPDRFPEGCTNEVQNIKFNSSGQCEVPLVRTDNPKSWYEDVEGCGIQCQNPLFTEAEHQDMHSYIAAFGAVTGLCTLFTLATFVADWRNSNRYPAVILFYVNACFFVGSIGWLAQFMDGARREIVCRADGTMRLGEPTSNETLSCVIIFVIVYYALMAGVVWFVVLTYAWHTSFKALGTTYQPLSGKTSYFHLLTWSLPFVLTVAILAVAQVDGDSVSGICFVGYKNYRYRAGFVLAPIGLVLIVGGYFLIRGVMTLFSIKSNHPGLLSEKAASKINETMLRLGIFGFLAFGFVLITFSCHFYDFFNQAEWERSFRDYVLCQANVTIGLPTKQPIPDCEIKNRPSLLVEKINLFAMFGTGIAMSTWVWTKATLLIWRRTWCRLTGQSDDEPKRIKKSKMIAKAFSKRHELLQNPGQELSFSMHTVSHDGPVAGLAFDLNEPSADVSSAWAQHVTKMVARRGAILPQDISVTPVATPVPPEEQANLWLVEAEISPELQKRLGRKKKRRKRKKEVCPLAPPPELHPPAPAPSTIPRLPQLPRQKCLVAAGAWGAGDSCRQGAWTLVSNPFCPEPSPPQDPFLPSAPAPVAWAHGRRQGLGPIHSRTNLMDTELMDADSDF

On to `C/C(=C\[C@@H](O)[C@H](C)O)[C@H]1CC[C@H]2C3=CC(=O)[C@H]4CC(=CC[C@H](O)C4)[C@H]3CC[C@]12C` [NEOCYCLOCITRINOL C], for which the IC50 in experiment [1], in [2], in [3], in experiment [4], in [5] and in experiment [6] was greater than 20 µM throughout. Besides, the IC50 in [7], in [8], in [9], in experiment [10], in [11] and in experiment [12] was greater than 20 µM in each case. Besides, the IC50 in experiment [13], in [14], in [15], in experiment [16], in [17] and in experiment [18] was greater than 20 µM in each case. Moreover, the result in [19] was Active. Also, the minimal effective concentration in experiment [20] was 5 µM. Moreover, the Activity entry in experiment [21] is “Dose-Dependent Effect”. Besides, the inhibition at 5 µM in [22] was determined as 78%.

In the case of `C/C(=C/[C@H](O)[C@H](C)O)[C@H]1CC[C@H]2C3=CC(=O)[C@H]4CC(=CC[C@H](O)C4)[C@H]3CC[C@]12C`, the IC50 in experiment [1], in [2], in experiment [3], in experiment [4], in [5] and in experiment [6] was greater than 20 µM in each case. For the same molecule, the IC50 in experiment [7], in [8], in experiment [9], in experiment [10], in [11] and in experiment [12] was greater than 20 µM each time. For the same molecule, the IC50 in experiment [13], in experiment [14], in experiment [15], in experiment [16], in experiment [17] and in experiment [18] was greater than 20 µM throughout. The result in experiment [19] was Active. Further, the minimal effective concentration in experiment [20] was determined as 20 µM. In [21], the Activity entry was “Dose-Dependent Effect”. In [23], this molecule gave an inhibition at 20 µM of 65%.

The molecule `c1ccc2c(Oc3nc(Nc4ccc(N5CCOCC5)cc4)c4ncn(C5CCCCC5)c4n3)cccc2c1` [PURMORPHAMINE] displayed an EC50 in experiment [24] of 1 µM.

`CO[C@@H](/C=C(\C)[C@H]1CC[C@H]2C3=CC(=O)[C@H]4CC(=CC[C@H](O)C4)[C@H]3CC[C@]12C)[C@@H](C)O`: the IC50 in experiment [1], in [2], in experiment [3], in experiment [4], in experiment [5] and in experiment [6] was greater than 20 µM in each case. Besides, the IC50 in [7], in experiment [8], in experiment [9], in experiment [10], in [11] and in experiment [12] was greater than 20 µM in each case. In addition, the IC50 in experiment [13], in [14], in experiment [15], in experiment [16], in experiment [17] and in experiment [18] was greater than 20 µM each time.

Turning to `CC(=O)OC(C)C(O)/C=C(\C)[C@H]1CC[C@H]2C3=CC(=O)[C@H]4CC(=CC[C@H](O)C4)[C@H]3CC[C@]12C` (stereo not given in full), the IC50 in experiment [1], in experiment [2], in experiment [3], in [4], in [5] and in [6] was greater than 20 µM each time. For the same molecule, the IC50 in experiment [7], in [8], in [9], in experiment [10], in experiment [11] and in experiment [12] was greater than 20 µM throughout. The IC50 in experiment [13], in experiment [14], in [15], in [16], in experiment [17] and in experiment [18] was greater than 20 µM each time.

For the molecule `C/C(=C\C(=O)O)[C@H]1CC[C@H]2C3=CC(=O)[C@H]4CC(=CC[C@H](O)C4)[C@H]3CC[C@]12C`, the IC50 in experiment [1], in experiment [2], in experiment [3], in experiment [4], in [5] and in experiment [6] was greater than 20 µM throughout. Moreover, the IC50 in experiment [7], in experiment [8], in [9], in experiment [10], in experiment [11] and in experiment [12] was greater than 20 µM each time. Also, the IC50 in experiment [13], in experiment [14], in experiment [15], in experiment [16], in experiment [17] and in [18] was greater than 20 µM throughout.

In the case of `CO[C@H](/C=C(\C)[C@H]1CC[C@H]2C3=CC(=O)[C@H]4CC(=CC[C@H](O)C4)[C@H]3CC[C@]12C)[C@H](C)O`, the IC50 in experiment [1], in experiment [2], in [3], in experiment [4], in experiment [5] and in [6] was greater than 20 µM each time. Moreover, the IC50 in experiment [7], in experiment [8], in [9], in experiment [10], in experiment [11] and in experiment [12] was greater than 20 µM each time. The IC50 in [13], in experiment [14], in experiment [15], in experiment [16], in [17] and in experiment [18] was greater than 20 µM each time.

In the case of `C/C(=C\[C@H](O)[C@@H](C)O)[C@H]1CC[C@H]2C3=CC(=O)[C@H]4CC(=CC[C@H](O)C4)[C@H]3CC[C@]12C`, the IC50 in experiment [1], in [2], in [3], in experiment [4], in experiment [5] and in experiment [6] was greater than 20 µM throughout. Also, the IC50 in [7], in [8], in [9], in experiment [10], in [11] and in experiment [12] was greater than 20 µM throughout. In addition, the IC50 in experiment [13], in [14], in [15], in experiment [16], in experiment [17] and in experiment [18] was greater than 20 µM throughout.
